Key:
Arabidopsis thaliana = Arabidopsis thaliana greening experiments; assay type: in vivo; conditions: 5, 15 and 45 micromolar, greening after 4 days
Description: Greening experiments were performed with Arabidopsis thaliana seeds of wild type Col-0; seeds were surface sterilized in bleach and plated onto 0.5×MS, 0.5% sucrose agar medium supplemented with compounds of interest at 5, 15 and 45 μM concentrations. After 4 d of stratification at 4° C., plates were transferred to a growth chamber (16 h/8 h, 150 μE/m^2) and greening recorded after 4 days. Pictures were recorded by camera (SONY a7s) with FE1.8/55 lens (FE 55 mm F1.8 ZA; SEL55F18Z). Experiments were performed in triplicate for each treatment.

C57BL/6 mice = experiment: Mouse studies (oral dosing, pathologies); assay type: in vivo; conditions: oral dose 50 mg/kg over several days
Description: Female C57BL/6 mice (bred in house, breeding pairs originally purchased from Charles River, Canada) 6-8 weeks of age were used for all experiments. Animal experiments were approved by the University of Calgary's Animal Care Committee. Infected mice were orally gavaged with a 200 third stage Heligmosomoides polygyrus larvae (maintained in house. Original stock was a gift from Dr. Allen Shostak, University of Alberta, Canada) and euthanized on day 22 post infection. […] Mice were treated orally with 5 daily doses of exemplary compound Ia (50 mg/kg resuspended in DMSO). Control mice were given DMSO only as a control.

D. rerio = experiment: Danio rerio (zebrafish) embryo dose-response experiments; assay type: in vivo; conditions: non-target system; embryos, 24 hours exposure
Description: Zebrafish chemical assays were performed similarly to previously described methods^63. In brief, fish were maintained at 28.5° C. on a 14/10 hour light/dark cycle and staged according to hours post fertilization (hpf). For each biological replicate, eggs from LT fish (AB/Tubingen strain) were collected at 4 hpf. At 24 hpf, embryos were arrayed in 24 well plates, 10 per well. In 2 ml tubes, 4 μl of chemical dissolved in DMSO at the appropriate concentration was added to 800 μl of water and then vortexed for 30 s intensively. Water was removed from the embryos in the wells and 800 μl of chemical-treated water was transferred to each of the wells. The DMSO control wells contained DMSO alone. The final DMSO concentration in every well was 0.5% (v/v). […] The embryos were incubated in the chemicals for 24 hours and scored for death and toxicity at 48 hpf. Toxicity was defined as the embryos showing developmental defects such as a curved body, reduced body size, skin whiteness, and heart edema. “Relative viability” was calculated by dividing the number of viable and properly developed embryos in the treatment wells by the average number of viable and properly developed embryos across six DMSO control wells. Three biological replicates were performed for each dose-response experiment, and the relative viability values were averaged across the three replicates.

HEK293 cells = experiment: HEK cell culture and dose-response experiments; assay type: cell-based, Human; conditions: non-target system; 48 hours, CellTiter-Blue
Description: HEK293 cells were seeded into 96-well plates, at 5000 cells per well, in 100 μL total volumes of DMEM/10% FBS/1% PS media and grown overnight at 37° C. in the presence of 5% CO2. Compounds (0.5 μL volumes from appropriate source plates) were then added to cells, and growth was continued for an additional 48 hours. Following growth, 10 μL of CellTiter-Blue Viability reagent (Promega) was added to each well, and plates were incubated for an additional 4 hours at 37° C. in the presence of 5% CO2. Fluorescence measurements (560 nm excitation/590 nm emission) were then performed using a CLARIOstar Plate Reader (BMG Labtech) to quantify reagent reduction and estimate cell viability.

[1] = Limit of solubility / precipitation in assay media; assay type: physicochemical; conditions: 100 μM in water, 0.5% DMSO (zebrafish assay)
M. incognita J2 larvae = experiment: Meloidogyne incognita in vitro assays (J2 movement); assay type: in vivo; conditions: 45 μM, 2 days, relative to DMSO control
Description: M. incognita (Kofoid & White) Chitwood Race 1 (originally isolated in Maryland) was used for all experiments, and was maintained on pepper (Capsicum annuum L.) cv. PA-136 in a greenhouse as previously described^64. Infective J2 juveniles were collected as described in ref.65. The microwell dose-response experiments were carried out similarly to previously described protocols^64, 66. In brief, 100 J2s, in 10 μL of deionized water, were added to the wells of 96-well polystyrene plates, after which 190 μL of deionized water containing dissolved chemical, or DMSO alone, was added to each well. The chemicals were tested at 45 μM, and the final concentration of DMSO in each well was 0.5% (v/v). The wells were covered with a plastic adhesive strip, and the lids of the plates were sealed with parafilm. The plates were incubated at 25° C. The mobile fraction of worms was quantified by counting the number of mobile and immobile worms after 2 days of incubation, and then dividing the number of mobile worms by the total number of worms in the well. Three technical replicates were performed for each treatment, and an average value for the mobile fraction of worms was calculated across the three replicates. The percent effectiveness at inhibiting nematode movement was calculated by dividing the average value for the chemical treatment by the average value for the DMSO control, then subtracting this value from 1, and then multiplying by 100.

Clc1ccc(-c2cn3ccsc3n2)cc1 [Ia]
effect on health and greening of Arabidopsis thaliana plants (phytotoxicity) (Arabidopsis thaliana): some phytotoxicity and yellowing at the highest concentration | obvious pathologies in comparison with the solvent control (C57BL/6 mice): did not exhibit any obvious pathologies | D. rerio LC50 (D. rerio): inactive | HEK Cells LC50 (HEK293 cells): inactive | compound precipitation [1]: Some compound precipitation was observed

Cc1csc2nc(-c3ccccc3)cn12 [Compound Ie]
% effectiveness at reducing M. incognita movement (M. incognita J2 larvae): 4.9%
